What is called IC50 is the concentration that gives 50% inhibition.

The text below walks through data of patent US11485737B2, “Diaryl substituted 5,5-fused ring compounds as C5aR inhibitors” (CHEMOCENTRYX, INC., priority 2017, dated 2022).

In the assay the target is T1, C5aR (Homo sapiens, UniProt P21730).
T1 construct: U937 cells are a monocytic cell line which express C5aR; host or cells: U937 cells (cAMP-treated overnight)
T1 sequence (P21730 1-350): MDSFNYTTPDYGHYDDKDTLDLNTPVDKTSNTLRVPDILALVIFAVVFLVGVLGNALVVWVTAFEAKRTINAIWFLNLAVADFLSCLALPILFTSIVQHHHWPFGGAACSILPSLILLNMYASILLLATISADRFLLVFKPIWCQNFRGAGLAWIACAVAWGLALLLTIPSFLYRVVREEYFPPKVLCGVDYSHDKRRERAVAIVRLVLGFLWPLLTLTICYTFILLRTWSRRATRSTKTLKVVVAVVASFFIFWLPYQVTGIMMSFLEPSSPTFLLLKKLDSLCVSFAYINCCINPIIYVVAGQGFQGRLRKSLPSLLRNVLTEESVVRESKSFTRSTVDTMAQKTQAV
Put plainly: Chemotaxis assay using U937 cells (C5a-induced migration). The assay is classed as cell-based. Particulars: chemotaxis (migration) of U937 cells towards C5a; read-out: Mig IC50. As to the method:
U937 cells are a monocytic cell line which express C5aR, and are available from ATCC (VA). These cells were cultured as a suspension in RPMI-1640 medium supplemented with 2 mM L-glutamine, 1.5 g/L sodium bicarbonate, 4.5 g/L glucose, 10 mM HEPES, 1 mM sodium pyruvate, and 10% FBS. Cells were grown under 5% CO2/95% air, 100% humidity at 37° C. and subcultured twice weekly at 1:6 (cells were cultured at a density range of 1×10^5 to 2×10^6 cells/mL) and harvested at 1×10^6 cells/mL. Prior to assay, cells are treated overnight with 0.5 mM of cyclic AMP (Sigma, OH) and washed once prior to use. cAMP treated U937 cells can be used in C5aR ligand binding and functional assays.
Optionally, compounds may be further assayed for their ability to inhibit chemotaxis in cells. Chemotaxis assays are performed using 5 μm pore polycarbonate, polyvinylpyrrolidone-coated filters in 96-well chemotaxis chambers (Neuroprobe; Gaithersburg, Md.) using chemotaxis buffer (Hank's balanced salt solution (HBSS) and 1% FBS). C5aR ligands (i.e., C5a, R&D Systems; Minneapolis, Minn.) are use to evaluate compound mediated inhibition of C5aR mediated migration. Other chemokines (i.e., SDF-1α; R&D Systems; Minneapolis, Minn.) are used as specificity controls. The lower chamber is loaded with 29 μl of chemokine (i.e., 0.03 nM C5a) and varying amounts of compound; the top chamber contains 100,000 U937 or neutrophil cells in 20 μl. The chambers are incubated 1.5 hours at 37° C., and the number of cells in the lower chamber quantified either by direct cell counts in five high powered fields per well or by the CyQuant assay (Molecular Probes), a fluorescent dye method that measures nucleic acid content and microscopic observation.
The compounds in Table 1, below, were prepared using the methods described above. Characterization data is provided for each compound listed. Activity is provided as follows for the chemotaxis assay using U937 cells as described herein (Example 7): +, 500 nM<IC50; ++, 50 nM<IC50<500 nM; +++, 5 nM<IC50<50 nM; and ++++, IC50<5 nM.
In the case of `CCc1cccc(CC)c1-n1nc2c(c1-c1cc(Cl)c(NC(N)=O)cc1F)CN(Cc1ccc(C(F)(F)F)cc1C(F)(F)F)C2(C)C` [Compound 1.001, 1-(4-(5-(2,4-bis(trifluoromethyl)benzyl)-2-(2,6-diethylphenyl)-6,6-dimethyl-2,4,5,6-tetrahydropyrrolo[3,4-c]pyrazol-3-yl)-2-chloro-5-fluorophenyl)urea], the IC50 was less than 0.005 µM. The figure for `CCc1cccc(CC)c1-n1nc2c(c1-c1cc(OC)c(NC(N)=O)cc1F)CN(Cc1ccc(C(F)(F)F)cc1C(F)(F)F)C2(C)C` [Compound 1.002] is less than 0.005 µM. In the case of `CCc1cccc(CC)c1-n1nc2c(c1-c1cc(C)c(NC(N)=O)cc1F)CN(Cc1ccc(C(F)(F)F)cc1C(F)(F)F)C2(C)C` [Compound 1.003], the half-inhibitory concentration (IC50) is less than 0.005 µM. For `CCc1cccc(CC)c1-n1nc2c(c1-c1cc(F)c(NC(N)=O)cc1F)CN(CC(C)(C)C(F)(F)F)C2(C)C` [Compound 1.004, 1-(4-(2-(2,6-diethylphenyl)-6,6-dimethyl-5-(3,3,3-trifluoro-2,2-dimethylpropyl)-2,4,5,6-tetrahydropyrrolo[3,4-c]pyrazol-3-yl)-2,5-difluorophenyl)urea], the IC50 is less than 0.005 µM. In the case of `CCc1cccc(CC)c1-n1nc2c(c1-c1ccc(C(N)=O)c(F)c1)CN(Cc1ccc(C(F)(F)F)cc1C(F)(F)F)C2(C)C` [Compound 1.005], the IC50 was more than 0.5 µM. As to `Cc1cccc(C)c1-n1nc2c(c1-c1cc(F)c(NC(N)=O)cc1F)CN(Cc1ccccc1C(F)(F)F)C2(C)C` [Compound 1.006], the concentration for half-maximal inhibition (IC50) was less than 0.005 µM. The figure for `Cc1cccc(C)c1-n1nc2c(c1-c1cc(F)c(NC(N)=O)cc1F)CN(Cc1ccc(C(F)(F)F)cc1C(F)(F)F)C2(C)C` [Compound 1.007] is less than 0.005 µM; for `CCc1cccc(CC)c1-n1nc2c(c1-c1cc(F)c(NC(N)=O)cc1C)CN(CC1(C)COC1)C2(C)C` [Compound 1.008] it is 0.005 to 0.05 µM; for `CCc1cccc(CC)c1-n1nc2c(c1-c1cc(F)c(NC(N)=O)cc1C)CN(Cc1ccccc1C(F)(F)F)C2(C)C` [Compound 1.009] it is less than 0.005 µM. With `CCc1cccc(CC)c1-n1nc2c(c1-c1cc(F)c(NC(N)=O)cc1C)CN(Cc1ccc(C(F)(F)F)cc1C(F)(F)F)C2(C)C` [Compound 1.010], the IC50 is less than 0.005 µM. As to `CCc1cccc(CC)c1-n1nc2c(c1-c1cc(F)c(NC(N)=O)cc1F)CN(Cc1cc(Cl)ccc1Cl)C2(C)C` [Compound 1.011], the IC50 is less than 0.005 µM. `CCc1cccc(CC)c1-n1nc2c(c1-c1cc(F)c(NC(N)=O)cc1F)CN(C(=O)CC(C)C)C2(C)C` [Compound 1.012]: the half-inhibitory concentration (IC50) is less than 0.005 µM.

As to `CCc1cccc(CC)c1-n1nc2c(c1-c1cc(F)c(NC(N)=O)cc1F)CN(C(=O)C(C)CC)C2(C)C` (centres unmarked) [Compound 1.013], the IC50 is less than 0.005 µM. The figure for `CCc1cccc(CC)c1-n1nc2c(c1-c1cc(F)c(NC(N)=O)cc1F)CN(Cc1ccccc1C(F)(F)F)C2(C)C` [Compound 1.014] is less than 0.005 µM.

As to `CCc1cccc(CC)c1-n1nc2c(c1-c1cc(F)c(NC(N)=O)cc1F)CN(CC1CCOCC1)C2(C)C` [Compound 1.015], the concentration for half-maximal inhibition (IC50) is less than 0.005 µM.

Consider `CCc1cccc(CC)c1-n1nc2c(c1-c1cc(F)c(NC(N)=O)cc1F)CN(C(=O)C(C)C)C2(C)C` [Compound 1.016, 1-(4-(2-(2,6-diethylphenyl)-5-isobutyryl-6,6-dimethyl-2,4,5,6-tetrahydropyrrolo[3,4-c]pyrazol-3-yl)-2,5-difluorophenyl)urea], for which the half-inhibitory concentration (IC50) is 0.005 to 0.05 µM. For the molecule `CCc1cccc(CC)c1-n1nc2c(c1-c1cc(F)c(NC(N)=O)cc1F)CN(Cc1cc(C(F)(F)F)ccc1C(F)(F)F)C2(C)C` [Compound 1.017], the IC50 was less than 0.005 µM. As for `CCc1cccc(CC)c1-n1nc2c(c1-c1cc(F)c(NC(N)=O)cc1F)CN(Cc1ccc(C(F)(F)F)cc1C(F)(F)F)C2(C)C` [Compound 1.018], the half-maximal inhibitory concentration (IC50) is less than 0.005 µM.

Consider `Cc1cccc(C)c1-n1nc2c(c1-c1ccc(NC(N)=O)cc1)CN(CC(C)(C)C)C2(C)C` [Compound 1.019], for which the half-inhibitory concentration (IC50) is 0.05 to 0.5 µM. With `Cc1cccc(C)c1-n1nc2c(c1-c1ccc(C(N)=O)cc1)CN(c1ccc(C(F)(F)F)c(Cl)c1)C2=O` [Compound 1.020], the IC50 is more than 0.5 µM. For the molecule `Cc1ccc(C(C)(C)C)cc1N1Cc2c(nn(-c3c(C)cccc3C)c2-c2ccc(NC(N)=O)cc2)C1=O` [Compound 1.021], the IC50 is more than 0.5 µM. On to `Cc1cccc(C)c1-n1nc2c(c1-c1ccc(NC(N)=O)cc1)CN(CC(C)(C)C)C2` [Compound 1.022], for which the IC50 lay in the range of 0.05 to 0.5 µM. In the case of `Cc1cc(C(N)=O)ccc1-c1c2c(nn1-c1c(C)cccc1C)C(=O)N(c1cc(C(C)(C)C)ccc1C)C2` [Compound 1.023], the IC50 lay in the range of 0.05 to 0.5 µM.

For the molecule `Cc1cc(-c2c3c(nn2-c2c(C)cccc2C)C(=O)N(c2cc(C(C)(C)C)ccc2C)C3)ccc1C(N)=O` [Compound 1.024], the half-inhibitory concentration (IC50) lay within 0.005 to 0.05 µM. Consider `Cc1cc(-c2c3c(nn2-c2c(C)cccc2C)CN(c2cc(C(C)(C)C)ccc2C)C3=O)ccc1C(N)=O` [Compound 1.025], for which the IC50 was more than 0.5 µM. Turning to `Cc1cccc(C)c1-n1nc2c(c1-c1ccc(C(N)=O)cc1)CN(c1cccc(C(C)(C)C)n1)C2` [Compound 1.027], the IC50 is more than 0.5 µM. In the case of `Cc1cccc(C)c1-n1nc2c(c1-c1ccc(C(N)=O)cc1)CN(c1cc(C(C)(C)C)ccn1)C2` [Compound 1.028], the IC50 was more than 0.5 µM. Consider `Cc1cccc(C)c1-n1nc2c(c1-c1ccc(NC(N)=O)cc1)CN(C(=O)OC(C)(C)C)C2` [Compound 1.029], for which the IC50 is more than 0.5 µM. Take `Cc1ccc(C(C)(C)C)cc1N1Cc2c(nn(-c3c(C)cccc3C)c2-c2ccc(C(N)=O)cc2)C1=O` [Compound 1.030]: the IC50 fell in the range of 0.005 to 0.05 µM.

Take `Cc1ccc(C(C)(C)C)cc1N1Cc2nn(-c3c(C)cccc3C)c(-c3ccc(C(N)=O)cc3)c2C1=O` [Compound 1.031]: the IC50 was 0.005 to 0.05 µM. Take `COc1cccc(C)c1-n1nc2c(c1-c1ccc(NC(N)=O)cc1)CN(C(=O)NC(C)(C)C)C2` [Compound 1.032]: the IC50 was more than 0.5 µM. With `Cc1cccc(C)c1-n1nc2c(c1-c1ccc(C(N)=O)cc1)CN(C(=O)NC(C)(C)C)C2` [Compound 1.033], the IC50 was more than 0.5 µM. As for `Cc1cccc(C)c1-n1nc2c(c1-c1ccc(C(N)=O)cc1)CN(c1ccc(F)cc1C(C)C)C2` [Compound 1.034], the 50% inhibitory concentration (IC50) was 0.05 to 0.5 µM. The figure for `Cc1cc(F)c(C(C)C)cc1N1Cc2nn(-c3c(C)cccc3C)c(-c3ccc(C(N)=O)cc3)c2C1` [Compound 1.035, 4-(2-(2,6-dimethylphenyl)-5-(4-fluoro-5-isopropyl-2-methylphenyl)-2,4,5,6-tetrahydropyrrolo[3,4-c]pyrazol-3-yl)benzamide] is 0.005 to 0.05 µM. With `Cc1cccc(C)c1-n1nc2c(c1-c1ccc(C(N)=O)cc1)CN(C(=O)c1ccc(C(C)(C)C)cc1)C2` [Compound 1.036], the IC50 is more than 0.5 µM. Take `Cc1cccc(C)c1-n1nc2c(c1-c1ccc(C(N)=O)cc1)CN(C(=O)c1ccccc1)C2` [Compound 1.037]: the IC50 is more than 0.5 µM. Regarding `Cc1cccc(C)c1-n1nc2c(c1-c1ccc(C(N)=O)cc1)CN(C(=O)OC(C)(C)C)C2` [Compound 1.038], the IC50 is more than 0.5 µM. `Cc1ccc(N2Cc3nn(-c4c(C)cccc4C)c(-c4ccc(C(N)=O)cc4)c3C2)cc1C(F)(F)F` [Compound 1.039]: the 50% inhibitory concentration (IC50) is more than 0.5 µM.

As to `Cc1cc(C(N)=O)ccc1-c1c2c(nn1-c1c(C)cccc1C)CN(c1cc(C(C)(C)C)ccc1C)C2` [Compound 1.040], the concentration for half-maximal inhibition (IC50) was 0.05 to 0.5 µM. For the molecule `Cc1ccc(C(C)(C)C)cc1N1Cc2nn(-c3c(C)cccc3OCC(C)C)c(-c3ccc(C(N)=O)cc3)c2C1` [Compound 1.041], the concentration for half-maximal inhibition (IC50) is less than 0.005 µM. On to `Cc1ccc(C(C)(C)C)cc1N1Cc2nn(-c3c(C)cccc3C)c(-c3ccc(C(=O)NC4CCCC4)cc3)c2C1` [Compound 1.042], for which the concentration for half-maximal inhibition (IC50) is more than 0.5 µM. Turning to `Cc1ccc(C(C)(C)C)cc1N1Cc2nn(-c3c(C)cccc3C)c(-c3ccc(C(=O)O)cc3)c2C1` [Compound 1.043], the IC50 was more than 0.5 µM. Turning to `COc1cccc(C)c1-n1nc2c(c1-c1ccc(NC(N)=O)cc1)CN(c1ccccc1C(C)C)C2` [Compound 1.044], the IC50 fell in the range of 0.05 to 0.5 µM.

Take `Cc1cccc(C)c1-n1nc2c(c1-c1ccc(NC(N)=O)cc1)CN(c1ccccc1C(C)C)C2` [Compound 1.045]: the IC50 lay within 0.05 to 0.5 µM.
